Test results from article doi:10.1101/2020.06.11.145995v1 (biorxiv, 2020).
Where two headings read alike, the source gives them in different places.

Tests used:
Experiment in all cases: biochemical
PLK4 = PLK4 (Homo sapiens, UniProt O00444)
TESK1 = TESK1 (Homo sapiens, UniProt Q15569)
YSK4 = YSK4 (Homo sapiens, UniProt Q56UN5)
STK39 = STK39 (Homo sapiens, UniProt Q9UEW8)
PIK3CA(M1043I) = biological target: PIK3CA(M1043I (Homo sapiens, UniProt P42336, M1043I))
PYK2 = PYK2 (Homo sapiens, UniProt Q14289)
PRKR = PRKR (Homo sapiens, UniProt P19525)
SRPK2 = SRPK2 (Homo sapiens, UniProt P78362)
TRPM6 = TRPM6 (Homo sapiens, UniProt Q9BX84)
RSK2 = RSK2 (Homo sapiens, UniProt P51812)
RSK3 = RSK3 (Homo sapiens, UniProt Q15349)
PRKG2 = PRKG2 (Homo sapiens, UniProt Q13237)
PLK1 = PLK1 (Homo sapiens, UniProt P53350)
RSK1 = RSK1 (Homo sapiens, UniProt Q15418)
PIK3CA(E545A) = PIK3CA(E545A) (Homo sapiens, UniProt P42336, E545A)
TRKC = TRKC (Homo sapiens, UniProt Q16288)
PIK3CA = PIK3CA (Homo sapiens, UniProt P42336)
NEK5 = NEK5 (Homo sapiens, UniProt Q6P3R8)
NDR1 = NDR1 (Homo sapiens, UniProt Q15208)
PCTK1 = PCTK1 (Homo sapiens, UniProt Q00536)
NEK1 = NEK1 (Homo sapiens, UniProt Q96PY6)
PDGFRB = PDGFRB (Homo sapiens, UniProt P09619)
p38-delta = p38-delta (Homo sapiens, UniProt O15264)
STK35 = STK35 (Homo sapiens, UniProt Q8TDR2)
SNARK = SNARK (Homo sapiens, UniProt Q9H093)
TBK1 = TBK1 (Homo sapiens, UniProt Q9UHD2)
PAK2 = PAK2 (Homo sapiens, UniProt Q13177)
PAK6 = PAK6 (Homo sapiens, UniProt Q9NQU5)
TYRO3 = TYRO3 (Homo sapiens, UniProt Q06418)
[1] = read-out: CPT-1-70-1 (1μM) % control
[2] = read-out: CPT-1-70-1 (1μM) % control, Kin.Dom.1-N-terminal
[3] = read-out: CPT-1-70-1 (1μM) % control, Kin.Dom.2-C-terminal
[4] = read-out: HYJ-2-002-1 (1μM) % control
[5] = read-out: HYJ-2-002-1 (1μM) % control, Kin.Dom.1-N-terminal
[6] = read-out: HYJ-2-002-1 (1μM) % control, Kin.Dom.2-C-terminal

Sequence of RSK3 (Q15349 whole entry): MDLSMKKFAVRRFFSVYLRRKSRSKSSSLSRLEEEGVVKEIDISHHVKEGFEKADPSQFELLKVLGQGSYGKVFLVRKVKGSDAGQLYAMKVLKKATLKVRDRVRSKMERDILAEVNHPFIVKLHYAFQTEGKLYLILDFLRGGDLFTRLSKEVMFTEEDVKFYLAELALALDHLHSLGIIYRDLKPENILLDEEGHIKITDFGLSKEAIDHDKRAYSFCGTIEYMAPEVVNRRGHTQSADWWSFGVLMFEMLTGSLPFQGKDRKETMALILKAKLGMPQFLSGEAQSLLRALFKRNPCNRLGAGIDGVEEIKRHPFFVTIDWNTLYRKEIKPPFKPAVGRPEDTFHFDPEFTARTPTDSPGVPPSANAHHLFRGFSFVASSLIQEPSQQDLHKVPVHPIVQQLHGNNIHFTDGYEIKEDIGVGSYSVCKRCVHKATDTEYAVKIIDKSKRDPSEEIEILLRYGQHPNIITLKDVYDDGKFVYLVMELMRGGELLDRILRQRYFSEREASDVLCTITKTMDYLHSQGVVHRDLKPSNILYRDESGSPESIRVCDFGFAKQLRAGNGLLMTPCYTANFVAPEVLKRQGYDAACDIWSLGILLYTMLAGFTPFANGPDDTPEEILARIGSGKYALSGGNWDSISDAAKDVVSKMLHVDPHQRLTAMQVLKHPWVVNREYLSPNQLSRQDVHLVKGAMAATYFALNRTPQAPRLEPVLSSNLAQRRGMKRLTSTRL
Sequence of RSK1 (Q15418 whole entry): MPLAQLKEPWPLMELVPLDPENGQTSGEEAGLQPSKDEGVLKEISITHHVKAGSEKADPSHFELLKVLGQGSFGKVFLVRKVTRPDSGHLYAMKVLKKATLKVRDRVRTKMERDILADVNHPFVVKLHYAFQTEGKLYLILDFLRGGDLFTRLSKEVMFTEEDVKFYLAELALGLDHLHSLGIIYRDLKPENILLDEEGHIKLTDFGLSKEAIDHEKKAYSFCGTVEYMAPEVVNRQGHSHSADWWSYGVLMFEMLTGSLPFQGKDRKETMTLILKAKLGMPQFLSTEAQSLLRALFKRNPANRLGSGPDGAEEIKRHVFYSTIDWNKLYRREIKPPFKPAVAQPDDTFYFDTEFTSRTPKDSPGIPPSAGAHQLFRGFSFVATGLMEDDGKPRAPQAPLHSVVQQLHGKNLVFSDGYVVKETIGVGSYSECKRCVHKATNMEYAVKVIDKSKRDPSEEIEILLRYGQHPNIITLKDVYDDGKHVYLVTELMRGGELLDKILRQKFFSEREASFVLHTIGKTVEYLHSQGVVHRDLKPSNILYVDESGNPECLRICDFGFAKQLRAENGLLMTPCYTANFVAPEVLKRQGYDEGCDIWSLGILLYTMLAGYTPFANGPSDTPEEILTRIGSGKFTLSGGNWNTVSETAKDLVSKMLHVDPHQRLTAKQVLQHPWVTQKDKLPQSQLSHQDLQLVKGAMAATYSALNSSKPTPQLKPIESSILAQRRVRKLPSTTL
Sequence of PRKG2 (Q13237 whole entry): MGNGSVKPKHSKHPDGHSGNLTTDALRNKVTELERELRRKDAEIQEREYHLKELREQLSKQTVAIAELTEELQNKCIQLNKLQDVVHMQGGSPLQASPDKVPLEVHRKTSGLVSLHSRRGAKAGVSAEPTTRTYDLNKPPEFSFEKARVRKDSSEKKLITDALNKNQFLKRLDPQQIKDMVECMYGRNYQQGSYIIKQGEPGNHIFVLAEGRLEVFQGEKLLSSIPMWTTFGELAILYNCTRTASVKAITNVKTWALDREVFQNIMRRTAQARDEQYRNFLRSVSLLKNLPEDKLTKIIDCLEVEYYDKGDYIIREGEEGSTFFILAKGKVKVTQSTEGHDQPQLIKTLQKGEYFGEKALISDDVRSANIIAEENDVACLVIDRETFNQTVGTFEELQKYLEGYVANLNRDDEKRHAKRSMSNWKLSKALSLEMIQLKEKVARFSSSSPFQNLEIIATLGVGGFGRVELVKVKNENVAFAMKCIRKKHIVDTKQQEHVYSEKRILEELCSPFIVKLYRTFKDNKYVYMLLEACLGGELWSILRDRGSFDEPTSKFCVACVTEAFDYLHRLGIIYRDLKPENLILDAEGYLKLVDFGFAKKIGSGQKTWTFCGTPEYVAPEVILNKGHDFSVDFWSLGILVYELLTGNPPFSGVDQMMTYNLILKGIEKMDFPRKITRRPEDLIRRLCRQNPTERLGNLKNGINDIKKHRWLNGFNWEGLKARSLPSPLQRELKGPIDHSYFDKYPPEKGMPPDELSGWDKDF
Sequence of TYRO3 (Q06418 whole entry): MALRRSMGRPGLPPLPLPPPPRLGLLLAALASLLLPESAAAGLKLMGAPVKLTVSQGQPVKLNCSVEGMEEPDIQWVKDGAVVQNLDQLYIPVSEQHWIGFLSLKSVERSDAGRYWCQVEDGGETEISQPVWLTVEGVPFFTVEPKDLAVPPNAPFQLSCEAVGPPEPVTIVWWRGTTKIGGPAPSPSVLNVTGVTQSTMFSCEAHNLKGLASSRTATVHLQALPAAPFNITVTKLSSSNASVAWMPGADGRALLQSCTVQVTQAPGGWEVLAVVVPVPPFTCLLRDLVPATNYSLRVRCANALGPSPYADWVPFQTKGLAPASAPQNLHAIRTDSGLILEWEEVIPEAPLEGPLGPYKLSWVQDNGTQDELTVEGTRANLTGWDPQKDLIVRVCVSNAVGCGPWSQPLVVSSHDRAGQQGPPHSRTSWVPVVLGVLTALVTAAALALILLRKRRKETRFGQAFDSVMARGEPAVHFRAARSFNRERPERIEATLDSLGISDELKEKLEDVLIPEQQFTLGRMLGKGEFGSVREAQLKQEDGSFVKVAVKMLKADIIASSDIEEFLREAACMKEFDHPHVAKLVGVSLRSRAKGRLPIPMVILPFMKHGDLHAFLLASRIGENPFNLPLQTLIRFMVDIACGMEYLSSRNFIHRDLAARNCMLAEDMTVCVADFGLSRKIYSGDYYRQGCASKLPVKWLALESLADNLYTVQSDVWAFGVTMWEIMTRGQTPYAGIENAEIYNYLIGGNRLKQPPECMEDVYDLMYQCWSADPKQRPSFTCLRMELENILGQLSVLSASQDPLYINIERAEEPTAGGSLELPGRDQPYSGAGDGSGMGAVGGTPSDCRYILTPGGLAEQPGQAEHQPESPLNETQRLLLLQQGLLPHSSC
Sequence of TRKC (Q16288 whole entry): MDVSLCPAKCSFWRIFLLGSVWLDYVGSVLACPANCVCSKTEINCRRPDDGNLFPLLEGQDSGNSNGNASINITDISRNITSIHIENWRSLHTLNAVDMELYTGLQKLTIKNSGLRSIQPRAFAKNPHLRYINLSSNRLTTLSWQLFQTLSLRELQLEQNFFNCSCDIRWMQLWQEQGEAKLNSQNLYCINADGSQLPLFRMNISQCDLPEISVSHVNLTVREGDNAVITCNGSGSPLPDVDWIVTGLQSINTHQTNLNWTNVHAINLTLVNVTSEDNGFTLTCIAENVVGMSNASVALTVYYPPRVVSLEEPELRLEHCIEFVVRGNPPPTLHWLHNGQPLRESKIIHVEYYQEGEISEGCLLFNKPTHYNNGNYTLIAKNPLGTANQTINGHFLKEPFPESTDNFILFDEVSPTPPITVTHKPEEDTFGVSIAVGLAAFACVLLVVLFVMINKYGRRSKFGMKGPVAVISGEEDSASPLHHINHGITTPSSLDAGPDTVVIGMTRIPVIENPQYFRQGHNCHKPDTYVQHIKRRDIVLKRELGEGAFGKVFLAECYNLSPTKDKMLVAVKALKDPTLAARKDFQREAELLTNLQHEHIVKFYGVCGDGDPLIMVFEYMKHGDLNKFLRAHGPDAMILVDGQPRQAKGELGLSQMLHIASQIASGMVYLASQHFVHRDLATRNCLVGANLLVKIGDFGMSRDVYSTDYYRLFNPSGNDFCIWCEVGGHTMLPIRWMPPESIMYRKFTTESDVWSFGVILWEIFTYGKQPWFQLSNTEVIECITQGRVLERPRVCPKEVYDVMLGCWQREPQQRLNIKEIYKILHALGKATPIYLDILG
Sequence of SNARK (Q9H093 whole entry): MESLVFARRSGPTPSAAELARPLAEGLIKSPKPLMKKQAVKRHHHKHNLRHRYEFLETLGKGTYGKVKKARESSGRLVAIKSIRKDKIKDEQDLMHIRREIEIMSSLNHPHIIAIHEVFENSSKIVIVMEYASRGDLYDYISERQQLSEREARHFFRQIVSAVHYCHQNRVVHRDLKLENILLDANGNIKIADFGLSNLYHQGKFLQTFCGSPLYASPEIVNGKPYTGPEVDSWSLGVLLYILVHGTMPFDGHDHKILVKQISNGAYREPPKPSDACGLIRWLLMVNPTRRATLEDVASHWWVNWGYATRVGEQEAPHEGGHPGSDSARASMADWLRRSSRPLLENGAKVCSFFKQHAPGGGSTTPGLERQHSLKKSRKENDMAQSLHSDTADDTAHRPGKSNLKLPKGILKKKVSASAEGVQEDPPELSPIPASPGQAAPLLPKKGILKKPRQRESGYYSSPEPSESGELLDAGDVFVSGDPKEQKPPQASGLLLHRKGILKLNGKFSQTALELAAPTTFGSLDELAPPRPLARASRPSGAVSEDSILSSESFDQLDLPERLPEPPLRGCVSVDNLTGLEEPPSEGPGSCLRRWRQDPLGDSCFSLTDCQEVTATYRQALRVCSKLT
Sequence of p38-delta (O15264 whole entry): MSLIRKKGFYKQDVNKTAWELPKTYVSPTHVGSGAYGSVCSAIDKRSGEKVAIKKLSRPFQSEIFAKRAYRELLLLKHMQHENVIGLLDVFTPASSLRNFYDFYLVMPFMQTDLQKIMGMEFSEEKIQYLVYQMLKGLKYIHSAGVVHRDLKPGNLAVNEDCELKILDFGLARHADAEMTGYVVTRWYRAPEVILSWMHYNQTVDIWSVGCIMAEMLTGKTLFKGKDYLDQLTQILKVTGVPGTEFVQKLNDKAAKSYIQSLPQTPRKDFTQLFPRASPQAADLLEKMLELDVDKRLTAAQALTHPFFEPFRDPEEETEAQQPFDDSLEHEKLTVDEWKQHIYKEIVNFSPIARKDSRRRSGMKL

Compound `CN1CCN(c2ccc(Nc3nc(Oc4ccc(NC(=O)CCl)cc4)c4cc[nH]c4n3)cc2)CC1` [CPT1-70-1] has a remaining activity at 1 µM (PLK4; [1]) of 23%, a remaining activity at 1 µM (TESK1; [1]) of 83% and a remaining activity at 1 µM (YSK4; [1]) of 0.45%. The remaining activity at 1 µM (STK39; [1]) was 85%, the remaining activity at 1 µM (PIK3CA(M1043I); [1]) was 100% and the remaining activity at 1 µM (PYK2; [1]) was 66%. The remaining activity at 1 µM (PRKR; [1]) was 93%, the remaining activity at 1 µM (SRPK2; [1]) was 98% and the remaining activity at 1 µM (TRPM6; [1]) was 48%. The remaining activity at 1 µM (RSK2; [2]) was 100%, the remaining activity at 1 µM (RSK3; [2]) was 66% and the remaining activity at 1 µM (RSK3; [3]) was 100%. It also gave a remaining activity at 1 µM (PRKG2; [1]) of 100%, a remaining activity at 1 µM (PLK1; [1]) of 100% and a remaining activity at 1 µM (RSK1; [2]) of 72%. It also gave a remaining activity at 1 µM (RSK1; [3]) of 100%, a remaining activity at 1 µM (PIK3CA(E545A); [1]) of 79% and a remaining activity at 1 µM (TRKC; [1]) of 61%. The remaining activity at 1 µM (PIK3CA; [1]) was 100%, the remaining activity at 1 µM (NEK5; [1]) was 82% and the remaining activity at 1 µM (NDR1; [1]) was 37%. It also gave a remaining activity at 1 µM (PCTK1; [1]) of 100%, a remaining activity at 1 µM (NEK1; [1]) of 100% and a remaining activity at 1 µM (PDGFRB; [1]) of 6.9%. For the same compound, the remaining activity at 1 µM (p38-delta; [1]) was 100%, the remaining activity at 1 µM (STK35; [1]) was 100% and the remaining activity at 1 µM (SNARK; [1]) was 8.5%. For the same compound, the remaining activity at 1 µM (TBK1; [1]) was 43%, the remaining activity at 1 µM (PAK2; [1]) was 64% and the remaining activity at 1 µM (PAK6; [1]) was 74%. For the same compound, the remaining activity at 1 µM (TYRO3; [1]) was 100%.
`CCN1CCN(Cc2ccc(NC(=O)c3ccc(C)c(CCc4cnc5[nH]ccc5c4OC)c3)cc2C(F)(F)F)CC1` [HYJ-2-002-1] showed a remaining activity at 1 µM (PLK4; [4]) of 100%, a remaining activity at 1 µM (TESK1; [4]) of 81% and a remaining activity at 1 µM (YSK4; [4]) of 0.45%. It also gave a remaining activity at 1 µM (STK39; [4]) of 94%, a remaining activity at 1 µM (PIK3CA(M1043I); [4]) of 100% and a remaining activity at 1 µM (PYK2; [4]) of 21%. It also gave a remaining activity at 1 µM (PRKR; [4]) of 75%, a remaining activity at 1 µM (SRPK2; [4]) of 100% and a remaining activity at 1 µM (TRPM6; [4]) of 100%. The remaining activity at 1 µM (RSK2; [5]) was 100%, the remaining activity at 1 µM (RSK3; [5]) was 42% and the remaining activity at 1 µM (RSK3; [6]) was 73%. It also gave a remaining activity at 1 µM (PRKG2; [4]) of 100%, a remaining activity at 1 µM (PLK1; [4]) of 100% and a remaining activity at 1 µM (RSK1; [5]) of 96%. The remaining activity at 1 µM (RSK1; [6]) was 61%, the remaining activity at 1 µM (PIK3CA(E545A); [4]) was 100% and the remaining activity at 1 µM (TRKC; [4]) was 8%. It also gave a remaining activity at 1 µM (PIK3CA; [4]) of 100%, a remaining activity at 1 µM (NEK5; [4]) of 21% and a remaining activity at 1 µM (NDR1; [4]) of 100%. It also gave a remaining activity at 1 µM (PCTK1; [4]) of 100%, a remaining activity at 1 µM (NEK1; [4]) of 82% and a remaining activity at 1 µM (PDGFRB; [4]) of 0%. For the same compound, the remaining activity at 1 µM (p38-delta; [4]) was 66%, the remaining activity at 1 µM (STK35; [4]) was 91% and the remaining activity at 1 µM (SNARK; [4]) was 100%. The remaining activity at 1 µM (TBK1; [4]) was 100%, the remaining activity at 1 µM (PAK2; [4]) was 99% and the remaining activity at 1 µM (PAK6; [4]) was 100%. The remaining activity at 1 µM (TYRO3; [4]) was 40%.
